Some results are limits rather than exact numbers.

This is an account of results in patent US9050346B2, “Bromodomain inhibitors” (AbbVie Inc., priority 2013, dated 2015).

The target of experiment [1] is T1, BRD4 (BDII_E352-M457) (Homo sapiens, UniProt O60885).
T1 construct: made in house
The experiment in a line: TR-FRET bromodomain binding assay, BRD4 second bromodomain. In short, it runs like this: (§1)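 His-tagged BRD4 BD1 (K57-E168) or BD2 (8 nM) with Eu-anti-His antibody and Alexa647-labeled BET-inhibitor probe (100 nM for BDI, 30 nM for BDII), pH 6.0 phosphate buffer, 2% DMSO, 1 h at room temperature. TR-FRET (Ex 340, Em 495/520); IC50 by 4-parameter fit, converted to Ki using probe Kd and concentration.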

In experiment [2] the test system is breast cancer cell line MX-1. The experiment in a line: MX-1 cell line proliferation assay (3-day, Cell Titer Glo). It counts as cell-based. As to conditions: Homo sapiens, MX1, MX-1 cells, 72 h, top concentration 3 μM, read-out: Cellular proliferation: EC50. Summed up:
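MX-1 cells, 5000/well in RPMI 1640 with 10% FBS, adhered overnight, then treated 3 days with compound at final 3 to 0.0001 μM (3-fold steps). Cell Titer Glo luminescence normalized to DMSO-treated cells; EC50 from sigmoidal fit.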

Experiment [3] has as its target T2, BRD4 (BDI_K57-E168) (Homo sapiens, UniProt O60885).
T2 construct: BD1: amino acids K57-E168; made in house
The experiment in a line: TR-FRET bromodomain binding assay, BRD4 first bromodomain. As to conditions: His-tagged BD1, 100 nM Alexa647 probe; Ki calculated from IC50; dilution protocol A-G. Summed up: as §1

For the compound `Cc1[nH]c(-c2cc(N)ccc2Oc2ccccc2)c2cn[nH]c(=O)c12` [Example 74, 5-(5-amino-2-phenoxyphenyl)-7-methyl-2,6-dihydro-1H-pyrrolo[3,4-d]pyridazin-1-one], the Ki is 18.6 nM in experiment [1] and 1.88 nM in experiment [3]. Besides, in experiment [2], the EC50 turned out to be 78 nM.
The like results for `CCS(=O)(=O)Nc1ccc(Oc2ccccc2)c(-c2[nH]c(C)c3c(=O)[nH]ncc23)c1` [Example 75, N-[3-(7-methyl-1-oxo-2,6-dihydro-1H-pyrrolo[3,4-d]pyridazin-5-yl)-4-phenoxyphenyl]ethanesulfonamide] were, in that order, 9.47 nM, 3.66 nM and 51.8 nM.
The matching figures for `Cc1[nH]c(-c2cc(NS(=O)(=O)CC(F)(F)F)ccc2Oc2ccccc2)c2cn[nH]c(=O)c12` [Example 76, 2,2,2-trifluoro-N-[3-(7-methyl-1-oxo-2,6-dihydro-1H-pyrrolo[3,4-d]pyridazin-5-yl)-4-phenoxyphenyl]ethanesulfonamide]: 16.2 nM, 5.82 nM and 410 nM.
The like results for `Cc1[nH]c(-c2cc(N)ccc2Oc2ccc(F)cc2F)c2cn[nH]c(=O)c12` [Example 78, 5-[5-amino-2-(2,4-difluorophenoxy)phenyl]-7-methyl-2,6-dihydro-1H-pyrrolo[3,4-d]pyridazin-1-one] were, in that order, 34.1 nM, 3.31 nM and 60.5 nM.
As to `CCS(=O)(=O)Nc1ccc(Oc2ccc(F)cc2F)c(-c2[nH]c(C)c3c(=O)[nH]ncc23)c1` [Example 79, N-[4-(2,4-difluorophenoxy)-3-(7-methyl-1-oxo-2,6-dihydro-1H-pyrrolo[3,4-d]pyridazin-5-yl)phenyl]ethanesulfonamide], the Ki in experiment [1] was 5.91 nM; in experiment [3] it was 1.78 nM. Besides, in experiment [2], the EC50 was determined as 88.6 nM.
The like results for `Cc1[nH]c(-c2cc(NS(C)(=O)=O)ccc2Oc2ccc(F)cc2F)c2cn[nH]c(=O)c12` [Example 80, N-[4-(2,4-difluorophenoxy)-3-(7-methyl-1-oxo-2,6-dihydro-1H-pyrrolo[3,4-d]pyridazin-5-yl)phenyl]methanesulfonamide] were, in that order, 24.4 nM, 3.26 nM and 92.2 nM.
The matching figures for `Cc1[nH]c(-c2cc(S(C)(=O)=O)ccc2Oc2ccc(F)cc2F)c2cn[nH]c(=O)c12` [Example 81, 5-[2-(2,4-difluorophenoxy)-5-(methylsulfonyl)phenyl]-7-methyl-2,6-dihydro-1H-pyrrolo[3,4-d]pyridazin-1-one]: 254 nM, 22.7 nM and 394 nM.
The matching figures for `Cc1cc(-c2ccc(-c3[nH]c(C)c4c(=O)[nH]ncc34)cc2)[nH]n1` [Example 83, 7-methyl-5-[4-(3-methyl-1H-pyrazol-5-yl)phenyl]-2,6-dihydro-1H-pyrrolo[3,4-d]pyridazin-1-one]: 627 nM, 126 nM and 1720 nM.
As to `CCS(=O)(=O)c1ccc(NCC2CC2)c(-c2[nH]c(C)c3c(=O)[nH]ncc23)c1` [Example 84, 5-{2-[(cyclopropylmethyl)amino]-5-(ethylsulfonyl)phenyl}-7-methyl-2,6-dihydro-1H-pyrrolo[3,4-d]pyridazin-1-one], the Ki is 112 nM in experiment [1] and 15.6 nM in experiment [3]. Besides, the EC50 in experiment [2] came out at 288 nM.
As for `Cc1[nH]c(-c2ccccc2Oc2ccccc2)c2nc[nH]c(=O)c12` [Example 85, 5-methyl-7-(2-phenoxyphenyl)-3,6-dihydro-4H-pyrrolo[3,4-d]pyrimidin-4-one], the Ki was 720 nM in experiment [1] and 92.4 nM in experiment [3]. Besides, the EC50 in experiment [2] is 1240 nM.
`CCOC(=O)c1nc2c(-c3ccccc3Oc3ccccc3)[nH]c(C)c2c(=O)[nH]1` [Example 87, ethyl 5-methyl-4-oxo-7-(2-phenoxyphenyl)-4,6-dihydro-3H-pyrrolo[3,4-d]pyrimidine-2-carboxylate]: the Ki was 1180 nM in experiment [1] and 82.3 nM in experiment [3]. In experiment [2], the EC50 is greater than 3000 nM.
The matching figures for `Cc1[nH]c(-c2ccccc2Oc2ccccc2)c2nc(-c3ccco3)[nH]c(=O)c12` [Example 88, 2-(furan-2-yl)-5-methyl-7-(2-phenoxyphenyl)-3,6-dihydro-4H-pyrrolo[3,4-d]pyrimidin-4-one]: 1620 nM, 380 nM and 761 nM.
The matching figures for `Cc1nc2c(-c3ccccc3Oc3ccccc3)[nH]c(C)c2c(=O)[nH]1` [Example 89, 2,5-dimethyl-7-(2-phenoxyphenyl)-3,6-dihydro-4H-pyrrolo[3,4-d]pyrimidin-4-one]: 497 nM, 212 nM and 963 nM.
The like results for `Cc1[nH]c(-c2cc(S(C)(=O)=O)ccc2OCC2CC2)c2c1C(=O)NCC2` [Example 96, 1-[2-(cyclopropylmethoxy)-5-(methylsulfonyl)phenyl]-3-methyl-2,5,6,7-tetrahydro-4H-pyrrolo[3,4-c]pyridin-4-one] were, in that order, 461 nM, 34.3 nM and 407 nM.
`COC(=O)C1Cc2c(-c3ccccc3Oc3ccccc3)[nH]c(C)c2C(=O)N1` (stereo not drawn) [Example 97, methyl 3-methyl-4-oxo-1-(2-phenoxyphenyl)-4,5,6,7-tetrahydro-2H-pyrrolo[3,4-c]pyridine-6-carboxylate]: the figures for the Ki in experiment [1] and in experiment [3] were 157 nM and 24.3 nM, respectively. Moreover, the EC50 in experiment [2] is greater than 3000 nM.
For the compound `Cc1[nH]c(-c2cc(N)ccc2Oc2ccc(F)cc2F)c2c1C(=O)NC(C)C2` (stereo not drawn) [Example 101, 1-[5-amino-2-(2,4-difluorophenoxy)phenyl]-3,6-dimethyl-2,5,6,7-tetrahydro-4H-pyrrolo[3,4-c]pyridin-4-one], the Ki in experiment [1] is 11.5 nM; in experiment [3] it was 8.42 nM. For the same compound, in experiment [2], the EC50 amounted to 45.8 nM.
The matching figures for `Cc1[nH]c(-c2cc(CO)ccc2Oc2ccc(F)cc2F)c2c1C(=O)NCC2` [Example 103, 1-[2-(2,4-difluorophenoxy)-5-(hydroxymethyl)phenyl]-3-methyl-2,5,6,7-tetrahydro-4H-pyrrolo[3,4-c]pyridin-4-one]: 198 nM, 122 nM and 239 nM.
